pIC50: −log10 of the molar value. One block for each molecule: values may come before it. Activity calls are given as the source filed them. The rule behind the calls is not given here.
Key:
[1] = molecular target: T1, Protein kinase C zeta type (Homo sapiens, UniProt Q05513); assay: Inhibition of PKCzeta in human U937 cells assessed as inhibition of TNF-alpha-induced NF-kB activation by luciferase reporter gene assay; type: cell-based, U-937
T1 sequence (Q05513 whole entry): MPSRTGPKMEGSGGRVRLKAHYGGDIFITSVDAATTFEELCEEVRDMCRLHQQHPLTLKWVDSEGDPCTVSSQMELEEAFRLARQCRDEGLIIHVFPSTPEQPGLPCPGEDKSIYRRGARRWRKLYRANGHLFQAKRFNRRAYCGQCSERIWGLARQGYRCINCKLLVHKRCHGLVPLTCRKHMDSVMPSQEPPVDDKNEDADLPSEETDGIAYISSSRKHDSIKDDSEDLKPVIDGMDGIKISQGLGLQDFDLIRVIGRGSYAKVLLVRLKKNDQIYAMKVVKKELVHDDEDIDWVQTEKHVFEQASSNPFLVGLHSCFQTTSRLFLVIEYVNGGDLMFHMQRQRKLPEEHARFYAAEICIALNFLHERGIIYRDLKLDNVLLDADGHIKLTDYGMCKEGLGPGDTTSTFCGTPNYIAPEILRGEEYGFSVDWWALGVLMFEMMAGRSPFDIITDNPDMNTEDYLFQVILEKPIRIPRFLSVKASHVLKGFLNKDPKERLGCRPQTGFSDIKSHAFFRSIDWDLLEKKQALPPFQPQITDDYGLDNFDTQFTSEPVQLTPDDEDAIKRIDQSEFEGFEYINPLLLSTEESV

[2] = molecular target: T1, Protein kinase C zeta type; assay: Inhibition of human PKCzeta assessed as [gamma32P]ATP utilization using myelin basic protein as substrate
[3] = molecular target: T2, Serine/threonine-protein kinase Sgk1 (Homo sapiens) (UniProt O00141); assay: Inhibition of SGK at 50 uM
T2 sequence (whole entry): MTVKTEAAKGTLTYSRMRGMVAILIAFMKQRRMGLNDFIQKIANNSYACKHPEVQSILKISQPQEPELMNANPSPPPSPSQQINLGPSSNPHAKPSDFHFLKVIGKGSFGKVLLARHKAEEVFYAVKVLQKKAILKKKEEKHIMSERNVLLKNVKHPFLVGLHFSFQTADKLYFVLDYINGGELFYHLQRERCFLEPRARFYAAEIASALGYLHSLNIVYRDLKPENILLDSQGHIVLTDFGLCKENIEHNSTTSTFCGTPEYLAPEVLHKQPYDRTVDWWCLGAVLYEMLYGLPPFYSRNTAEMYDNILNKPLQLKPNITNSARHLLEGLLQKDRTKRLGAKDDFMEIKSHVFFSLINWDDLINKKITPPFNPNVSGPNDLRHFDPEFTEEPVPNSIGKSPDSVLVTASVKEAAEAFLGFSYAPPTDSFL

[4] = molecular target: T3, Protein kinase C iota type (Homo sapiens) (UniProt P41743); assay: Inhibition of PKCiota at 50 uM
T3 sequence (whole entry): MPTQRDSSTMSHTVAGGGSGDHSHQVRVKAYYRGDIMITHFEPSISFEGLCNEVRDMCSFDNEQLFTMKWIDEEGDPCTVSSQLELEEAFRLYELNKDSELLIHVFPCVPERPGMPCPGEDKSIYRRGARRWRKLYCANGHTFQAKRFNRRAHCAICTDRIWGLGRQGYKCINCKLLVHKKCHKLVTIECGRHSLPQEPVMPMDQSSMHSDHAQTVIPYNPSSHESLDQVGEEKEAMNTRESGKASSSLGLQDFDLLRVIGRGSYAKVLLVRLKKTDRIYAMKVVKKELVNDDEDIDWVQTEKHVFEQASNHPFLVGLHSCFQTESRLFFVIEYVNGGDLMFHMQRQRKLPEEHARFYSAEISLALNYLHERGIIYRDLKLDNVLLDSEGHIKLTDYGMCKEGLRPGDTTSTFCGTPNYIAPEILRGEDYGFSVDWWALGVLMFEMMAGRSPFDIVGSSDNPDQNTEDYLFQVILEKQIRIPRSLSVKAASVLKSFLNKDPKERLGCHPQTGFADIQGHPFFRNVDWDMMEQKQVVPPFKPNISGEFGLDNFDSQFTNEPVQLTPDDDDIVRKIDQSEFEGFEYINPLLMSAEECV

[5] = Inhibition of PKA at 50 uM
[6] = molecular target: Serine/threonine-protein kinase N2 (Homo sapiens) (UniProt Q16513); assay: Inhibition of PRK2 at 50 uM
[7] = molecular target: T3, Protein kinase C iota type (Homo sapiens); assay: Inhibition of PKCiota at 200 uM
[8] = molecular target: Ribosomal protein S6 kinase beta-1 (Homo sapiens) (UniProt P23443); assay: Inhibition of S6K1 at 50 uM
[9] = molecular target: RAC-alpha serine/threonine-protein kinase (Homo sapiens) (UniProt P31749); assay: Inhibition of PKB-alpha at 50 uM
[10] = molecular target: 3-phosphoinositide-dependent protein kinase 1 (Homo sapiens) (UniProt O15530); assay: Activation of PDK1 at 50 uM
3-phosphoinositide-dependent protein kinase 1 (Homo sapiens), sequence (O15530 whole entry, looked up): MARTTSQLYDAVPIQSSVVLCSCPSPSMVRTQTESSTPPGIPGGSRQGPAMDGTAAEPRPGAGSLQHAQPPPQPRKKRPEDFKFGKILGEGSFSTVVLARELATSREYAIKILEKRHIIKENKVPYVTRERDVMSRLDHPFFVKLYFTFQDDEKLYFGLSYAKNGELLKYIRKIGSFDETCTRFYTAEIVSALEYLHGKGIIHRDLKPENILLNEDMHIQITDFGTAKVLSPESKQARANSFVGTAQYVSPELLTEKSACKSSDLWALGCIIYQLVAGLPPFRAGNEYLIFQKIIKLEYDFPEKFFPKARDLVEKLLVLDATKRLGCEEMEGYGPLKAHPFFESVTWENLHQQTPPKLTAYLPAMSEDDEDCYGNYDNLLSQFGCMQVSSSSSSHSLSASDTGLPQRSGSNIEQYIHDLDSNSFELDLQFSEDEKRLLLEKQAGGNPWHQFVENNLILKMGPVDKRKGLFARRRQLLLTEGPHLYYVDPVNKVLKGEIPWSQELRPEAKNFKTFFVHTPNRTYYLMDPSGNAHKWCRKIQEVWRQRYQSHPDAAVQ

Ribosomal protein S6 kinase beta-1 (Homo sapiens), sequence (P23443 whole entry, looked up): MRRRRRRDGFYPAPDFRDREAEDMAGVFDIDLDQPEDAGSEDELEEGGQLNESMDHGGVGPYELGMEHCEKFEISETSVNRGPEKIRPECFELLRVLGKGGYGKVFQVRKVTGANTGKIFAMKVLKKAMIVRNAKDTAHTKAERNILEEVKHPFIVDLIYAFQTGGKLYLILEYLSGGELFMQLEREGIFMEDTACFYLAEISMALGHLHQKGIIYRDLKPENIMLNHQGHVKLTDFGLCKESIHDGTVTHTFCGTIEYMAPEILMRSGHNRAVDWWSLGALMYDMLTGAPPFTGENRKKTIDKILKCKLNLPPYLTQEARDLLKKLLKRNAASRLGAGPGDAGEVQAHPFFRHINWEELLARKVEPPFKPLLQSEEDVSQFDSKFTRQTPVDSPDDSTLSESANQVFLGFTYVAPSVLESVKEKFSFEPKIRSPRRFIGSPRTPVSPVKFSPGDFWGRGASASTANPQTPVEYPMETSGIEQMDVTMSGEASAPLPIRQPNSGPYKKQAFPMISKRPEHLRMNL
Serine/threonine-protein kinase N2 (Homo sapiens), sequence (Q16513 whole entry, looked up): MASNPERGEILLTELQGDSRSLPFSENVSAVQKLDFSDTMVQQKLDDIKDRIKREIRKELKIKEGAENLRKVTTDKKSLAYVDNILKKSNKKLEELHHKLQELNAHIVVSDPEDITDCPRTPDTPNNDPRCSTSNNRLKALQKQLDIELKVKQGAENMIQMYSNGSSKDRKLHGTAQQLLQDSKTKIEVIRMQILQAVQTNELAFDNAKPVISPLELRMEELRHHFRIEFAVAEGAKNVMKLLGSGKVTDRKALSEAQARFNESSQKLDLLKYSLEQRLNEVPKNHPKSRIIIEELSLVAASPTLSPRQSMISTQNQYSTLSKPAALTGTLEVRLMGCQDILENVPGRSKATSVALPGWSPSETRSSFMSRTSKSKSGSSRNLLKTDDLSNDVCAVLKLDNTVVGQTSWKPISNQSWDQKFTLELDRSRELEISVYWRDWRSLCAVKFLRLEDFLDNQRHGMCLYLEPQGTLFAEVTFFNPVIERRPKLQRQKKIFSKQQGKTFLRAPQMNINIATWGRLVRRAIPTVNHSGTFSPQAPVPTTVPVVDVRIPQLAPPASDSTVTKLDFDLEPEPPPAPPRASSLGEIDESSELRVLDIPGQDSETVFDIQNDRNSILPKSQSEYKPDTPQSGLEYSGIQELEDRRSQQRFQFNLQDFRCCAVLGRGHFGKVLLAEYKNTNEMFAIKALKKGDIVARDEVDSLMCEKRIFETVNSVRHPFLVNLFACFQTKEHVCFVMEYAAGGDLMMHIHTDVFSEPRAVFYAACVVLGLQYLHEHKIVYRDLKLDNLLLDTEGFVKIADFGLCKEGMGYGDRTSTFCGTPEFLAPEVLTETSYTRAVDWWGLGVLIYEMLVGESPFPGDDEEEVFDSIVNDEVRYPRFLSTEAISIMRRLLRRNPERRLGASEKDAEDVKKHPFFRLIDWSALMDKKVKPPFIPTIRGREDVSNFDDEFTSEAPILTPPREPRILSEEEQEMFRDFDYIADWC
RAC-alpha serine/threonine-protein kinase (Homo sapiens), sequence (P31749 whole entry): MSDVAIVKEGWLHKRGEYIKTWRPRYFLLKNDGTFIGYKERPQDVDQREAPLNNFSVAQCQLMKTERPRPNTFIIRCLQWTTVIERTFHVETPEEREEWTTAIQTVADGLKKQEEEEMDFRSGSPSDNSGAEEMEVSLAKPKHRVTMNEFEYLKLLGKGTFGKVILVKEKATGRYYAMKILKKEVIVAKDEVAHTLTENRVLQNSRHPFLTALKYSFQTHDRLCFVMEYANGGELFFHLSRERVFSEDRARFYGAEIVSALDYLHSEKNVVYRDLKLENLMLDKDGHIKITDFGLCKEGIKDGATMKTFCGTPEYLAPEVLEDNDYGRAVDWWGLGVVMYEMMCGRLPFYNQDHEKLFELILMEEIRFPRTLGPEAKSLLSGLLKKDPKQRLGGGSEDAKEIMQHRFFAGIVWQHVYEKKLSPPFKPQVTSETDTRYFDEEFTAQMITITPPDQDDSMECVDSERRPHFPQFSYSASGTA

Compound: CC(C)(C)c1ccc(C(CC(=O)O)Cc2nc3ccc(I)cc3[nH]2)cc1 (racemic)
pIC50 [1]: 4.89
pIC50 [2]: 4.64

Compound: CC(C)(C)c1ccc(C(CC(=O)O)Cc2nc3cc(I)ccc3[nH]2)cc1 (racemic)
inhibition [3]: 30%

Compound: CCCc1ccc(C(CC(=O)O)Cc2nc3cc(I)ccc3[nH]2)cc1 (racemic)
inhibition [4]: inactive
inhibition [3]: Active
inhibition [5]: Active
inhibition [6]: Active
inhibition [7]: inactive
inhibition [8]: 60%
inhibition [9]: Active

The next lines start with the values.

inhibition [8]: 60%
Compound: O=C(O)CC(Cc1nc2cc(-c3ccccc3)ccc2[nH]1)c1ccc(Cl)cc1 (racemic)

fold change (FC) [10]: 3
Compound: O=C(O)CC(Cc1nc2cc(Cl)c(F)cc2[nH]1)c1ccc(Cl)cc1 (racemic)

fold change (FC) [10]: 3
Compound: O=C(O)CC(Cc1nc2cc(Cl)ccc2[nH]1)c1ccc(Cl)cc1Cl (racemic)

Source: ChEMBL document CHEMBL1828625, “4-benzimidazolyl-3-phenylbutanoic acids as novel PIF-pocket-targeting allosteric inhibitors of protein kinase PKCζ” (J Med Chem, 2011)
